Test results: US20130217639A1, “COMPOUND FOR ACTIVATING NATURAL KILLER T CELLS AND PREPARING METHOD THEREOF” (NATIONAL TSING HUA UNIVERSITY, priority 2012, published 2013)
Entries after “also recorded” stand apart in the source; their conditions may differ.

System: human Vα24+/Vβ11+ iNKT cells
Assay: Stimulation of human Vα24+/Vβ11+ NKT cell populations in PBMC culture, flow cytometry
Format: cell-based
Details: PBMC from a normal healthy donor, 100 nM, 14 days of culture
Procedure: Peripheral blood mononuclear cells (PBMC) from a normal healthy donor were incubated with each individual compound at a final concentration of 100 nM. After 14 days of culture, NKT cell frequencies were determined by flow cytometry. NKT cell frequencies were defined as the percentage of Vα24+/V−β11+ cells among gated lymphocytes in the upper right (UR) corner for each case. Shown here are the profiles of PBMC harvested from 14-day cultures containing (a) vehicle alone (DMSO, UN), or (b) 100 nM of α-GalCer (KS), (c) analog 18 (DABB), or (d) analog 19 (DAGBB), as indicated.
The less toxic product mixtures were further examined. These sample mixtures after simple filtration through silica gel were submitted to analysis with ESI-MS. […] Among them, 4-benzyl benzoic acid derived amide product showing the most significant signals was resynthesized in both its ceramidic form 18 and galactosyl ceramidic form 19 (Scheme 6). The subsequent validation experiment was performed by MTT assay and flowcytotmetry (FIG. 4). […] This confirmed the important role played by sugar moieties.

**Q.** How did the “stimulation of Vα24+/Vβ11+ iNKT cell population” value turn out when CCCCCCCCCCCCCC[C@@H](O)[C@@H](O)[C@H](CO[C@H]1O[C@H](CNC(=O)c2ccc(CCCC)cc2)[C@H](O)[C@H](O)[C@H]1O)NC(=O)c1ccc(CCCC)cc1 [analog 19, 4-butyl-N-(((2R,3R,4S,5R,6S)-6-(((2S,3S,4R)-2-(4-butylbenzamido)-3,4-dihydroxyoctadecyl)oxy)-3,4,5-trihydroxytetrahydro-2H-pyran-2-yl)methyl)benzamide] was run?
**A.** stimulats human iNKT cell population; also recorded: stimulative
